Test [1] addresses T1, Serine/threonine-protein kinase TBK1 (Homo sapiens) (UniProt Q9UHD2).
T1 sequence (whole entry): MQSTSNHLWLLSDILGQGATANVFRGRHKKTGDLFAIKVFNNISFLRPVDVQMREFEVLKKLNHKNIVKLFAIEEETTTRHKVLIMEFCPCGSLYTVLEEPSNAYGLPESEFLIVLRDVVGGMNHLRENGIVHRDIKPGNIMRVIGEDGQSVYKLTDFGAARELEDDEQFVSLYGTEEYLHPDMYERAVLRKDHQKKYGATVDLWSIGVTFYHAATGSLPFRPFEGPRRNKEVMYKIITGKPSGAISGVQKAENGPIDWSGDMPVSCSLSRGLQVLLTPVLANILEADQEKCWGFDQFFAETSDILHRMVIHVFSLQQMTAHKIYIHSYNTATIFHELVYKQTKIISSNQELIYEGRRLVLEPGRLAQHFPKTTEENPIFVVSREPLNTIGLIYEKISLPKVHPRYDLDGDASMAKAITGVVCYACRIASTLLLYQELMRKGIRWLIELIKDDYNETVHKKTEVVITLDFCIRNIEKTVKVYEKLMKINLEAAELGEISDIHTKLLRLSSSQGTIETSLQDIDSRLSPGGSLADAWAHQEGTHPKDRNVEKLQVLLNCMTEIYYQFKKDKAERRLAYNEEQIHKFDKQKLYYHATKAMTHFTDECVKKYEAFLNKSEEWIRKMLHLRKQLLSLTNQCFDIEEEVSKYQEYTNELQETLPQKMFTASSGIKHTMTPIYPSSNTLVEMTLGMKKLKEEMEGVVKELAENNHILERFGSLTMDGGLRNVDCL
In words: Inhibition of TBK1 (unknown origin) incubated at 1000 nM for 1 hr in presence of ATP by FRET based Z'-Lyte assay relative to control.

The target of test [2] is T1, Serine/threonine-protein kinase TBK1 (Homo sapiens). The test can be described thus: Inhibition of TBK1 (unknown origin) incubated at 100 nM for 1 hr in presence of ATP by FRET based Z'-Lyte assay relative to control.
Test [3] shares this target. In words: Inhibition of TBK1 (unknown origin) incubated at 10 nM for 1 hr in presence of ATP by FRET based Z'-Lyte assay relative to control.
In test [4] the target is T2, Serine/threonine-protein kinase TBK1 (Homo sapiens, UniProt Q9UHD2).
T2 sequence (Q9UHD2 whole entry): T1 sequence (whole entry)
In words: Inhibition of TBK1 (unknown origin) incubated for 1 hr in presence of ATP by FRET based Z'-Lyte assay.

Test [5] relates to THP1-Blue ISG. In words: Inhibition of LPS-induced ifn-beta in human THP1-Blue ISG cells treated at 1 uM for 2 hrs RTq-PCR analysis. The class given is functional, cell-based.
For test [6], the system named is THP1-Blue ISG. In words: Inhibition of LPS-induced cxcl10 in human THP1-Blue ISG cells treated at 1 uM for 2 hrs RTq-PCR analysis. The class given is functional, cell-based.
For test [7], the system named is RAW264.7. The test can be described thus: Inhibition of LPS-induced ifn-beta in mouse RAW264.7 cells treated at 1 uM for 2 hrs RTq-PCR analysis. It counts as functional, cell-based.
Test [8] has as its system RAW264.7. In words: Inhibition of LPS-induced cxcl10 in mouse RAW264.7 cells treated at 1 uM for 2 hrs RTq-PCR analysis. The class given is functional, cell-based.

Molecules are shown by their SMILES. pIC50: −log10 of the molar value. Calls of active or inactive are those of the source. No cut-off for these calls is given here.

As to `O=C(NCCCn1cnc2cnc(Nc3cccc(CN4CCOCC4)c3)nc21)C1CCC1`, the inhibition (as a rule, the relative decrease from the control value, in per cent) in test [1] was 25.5%; in test [2] it was below 0%; in test [3], below 0%.

In the case of `O=C(NCCCN1C(=O)Cc2cnc(Nc3cccc(CN4CCOCC4)c3)nc21)C1CCC1`, the inhibition was 0.6% in test [1], below 0% in test [2] and below 0% in test [3].

`N#Cc1cn(CCCNC(=O)C2CCC2)c2nc(Nc3cccc(CN4CCOCC4)c3)ncc12`: the inhibition in test [1] was 26.4%; in test [2], below 0%; in test [3], below 0%.

`O=C(NCCCn1ncc2cnc(Nc3cccc(CN4CCOCC4)c3)nc21)C1CCC1`: the figures for the inhibition in test [1], in test [2] and in test [3] were 29%, below 0% and below 0%, respectively.

For `Cc1cc(=O)n(CCCNC(=O)C2CCC2)c2nc(Nc3cccc(CN4CCOCC4)c3)ncc12`, the inhibition in test [1], in test [2] and in test [3] was below 0% throughout.

Regarding `O=C(Nc1cccc(Cn2ccc3cnc(Nc4cccc(CN5CCOCC5)c4)nc32)c1)C1CCC1`, the inhibition in test [1], in test [2] and in test [3] was below 0% throughout.

For `O=C(NCCCn1cc(Br)c2cnc(Nc3cccc(CN4CCOCC4)c3)nc21)C1CCC1`, the inhibition was determined as 84.4% in test [1], 37.1% in test [2] and 1.33% in test [3].

As for `O=C(C1CCC1)N1CCC(n2ccc3cnc(Nc4cccc(CN5CCOCC5)c4)nc32)C1` (configuration not stated), the inhibition in test [1], in test [2] and in test [3] was below 0% in each case.

As for `O=C(NCCCn1ccc2cnc(Nc3cccc(CN4CCN(C5COC5)CC4)c3)nc21)C1CCC1`, the pIC50 (as a rule, −log10 of the IC50, conventionally taken in molar units) in test [4] was 7.30. For the same molecule, the results for the inhibition in test [1], in test [2] and in test [3] were 92.3%, 64% and 14.7%, respectively.

As to `O=C(NCCCn1cc(C2CC2)c2cnc(Nc3cccc(CN4CCOCC4)c3)nc21)C1CCC1`, the inhibition in test [1], in test [2] and in test [3] was below 0% each time.

`COCCN(C)Cc1cccc(Nc2ncc3ccn(CCCNC(=O)C4CCC4)c3n2)c1`: the pIC50 in test [4] is 7.45. Also, the inhibition turned out to be 91.8% in test [1], 68.9% in test [2] and 23% in test [3].

Regarding `Cc1cn(CCCNC(=O)C2CCC2)c2nc(Nc3cccc(CN4CCOCC4)c3)ncc12`, the inhibition in test [1] was 78.7%; in test [2] it was 22.8%; in test [3] it was below 0%.

On to `O=C(NCCCNc1nc(Nc2cccc(CN3CCOCC3)c2)ncc1C1CC1)C1CCC1`, for which the inhibition result in test [5], in test [6], in test [7] and in test [8] was “Active” throughout.

Take `O=C(C1CCC1)N1CCC(n2ccc3cnc(Nc4cccc(CN5CCOCC5)c4)nc32)CC1`: the inhibition in test [1], in test [2] and in test [3] was below 0% each time.

`O=C(NCc1cccc(-n2ccc3cnc(Nc4cccc(CN5CCOCC5)c4)nc32)c1)C1CCC1`: the inhibition is 72.8% in test [1], 15.7% in test [2] and below 0% in test [3].

For the molecule `CN1CCN(Cc2cccc(Nc3ncc4ccn(CCCNC(=O)C5CCC5)c4n3)c2)CC1`, the pIC50 in test [4] was 7.27. Moreover, the inhibition in test [1] was 72.6%; in test [2], 44.5%; in test [3] it was -3.2%.

In the case of `O=C(Nc1ccc(-n2ccc3cnc(Nc4cccc(CN5CCOCC5)c4)nc32)nc1)C1CCC1`, the inhibition in test [1] is 1.8%; in test [2] it was below 0%; in test [3] it was below 0%.

Turning to `O=C(NCCCn1cc(Cl)c2cnc(Nc3cccc(CN4CCOCC4)c3)nc21)C1CCC1`, the inhibition is 91% in test [1], 55.8% in test [2] and 9.6% in test [3].

With `O=C(NCCCn1ccc2cnc(Nc3cccc(CN4CCOCC4)c3)nc21)C1CCC1`, the pIC50 in test [4] is 7.18. Moreover, the inhibition in test [1] turned out to be 92.1%; in test [2], 69.7%; in test [3] it was 23.3%.

Values taken from ChEMBL document CHEMBL5352492, “Application of deep generative model for design of Pyrrolo[2,3-d] pyrimidine derivatives as new selective TANK binding kinase 1 (TBK1) inhibitors” (Eur J Med Chem, 2023).
